Reference: patent publication US20060063784A1, “Method of using substituted pyrazolo [1,5-a] pyrimidines” (priority 2004, published 2006)
Read-outs that look alike come from different tables or passages of the source.

Test system: 80S14 (p21-deficient) cells
Experiment: Cytotoxicity assay using isogenic cell lines: IC50 in 80S14 (p21-deficient) cells, SRB
Type: cell-based, human
Conditions: Homo sapiens
Procedure, shortened: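 80S14 (p21-deficient) cells seeded at 12,000 cells/well overnight, then exposed 5 days at 37 °C to serial dilutions (5 pM–50 μM or 170 pg/ml–10 μg/ml). TCA-fixed, sulforhodamine B-stained, absorbance at 560 nm; IC50 taken from cytotoxicity curves versus untreated controls.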

[1] = 80S14, 120 h, read-out: IC50 for 80S14 (uM)
[2] = 120 h, 80S14 (p21-deficient) cells, 5 days, SRB, class symbols, read-out: IC50 for 80S14

SMILES | IC50 [1] [µM] | IC50 [2] [µM]
CC(C)OC(=O)Nc1cccc(-c2ccnc3c(C(=O)c4ccccc4)cnn23)c1 [Example 294, Isopropyl 3-(3-benzoylpyrazolo[1,5-a]pyrimidin-7-yl)phenylcarbamate] | < 1 | 
CC(C)OC(=O)Nc1cccc(-c2ccnc3c(C(=O)C4CCCC4)cnn23)c1 [Example 295, Isopropyl 3-[3-(cyclopentylcarbonyl)pyrazolo[1,5-a]pyrimidin-7-yl]phenylcarbamate] | 1 to 10 | 
CC(C)CC(=O)Nc1cccc(-c2ccnc3c(C(=O)C4CCCC4)cnn23)c1 [Example 296, N-{3-[3-(Cyclopentylcarbonyl)pyrazolo[1,5-a]pyrimidin-7-yl]phenyl}-3-methylbutanamide] | 1 to 10 | 
CC(C)NC(=O)Nc1cccc(-c2ccnc3c(C(=O)c4ccco4)cnn23)c1 [Example 298, N-{3-[3-(2-Furoyl)pyrazolo[1,5-a]pyrimidin-7-yl]phenyl}-N′-isopropylurea] |  | < 1
CC(C)OC(=O)Nc1cccc(-c2ccnc3c(C(=O)c4ccco4)cnn23)c1 [Example 299, Isopropyl 3-[3-(2-furoyl)pyrazolo[1,5-a]pyrimidin-7-yl]phenylcarbamate] | < 1 | 
O=C(Nc1cccc(-c2ccnc3c(C(=O)c4ccco4)cnn23)c1)c1ccccc1 [Example 300, N-{3-[3-(2-Furoyl)pyrazolo[1,5-a]pyrimidin-7-yl]phenyl}benzamide] |  | 1 to 10
O=C(c1ccco1)c1cnn2c(-c3cccc(NC(=O)C4CCCC4)c3)ccnc12 [Example 302, N-{3-[3-(2-Furoyl)pyrazolo[1,5-a]pyrimidin-7-yl]phenyl}cyclopentanecarboxamide] |  | < 1
CC(C)CC(=O)Nc1cccc(-c2ccnc3c(C(=O)c4ccoc4)cnn23)c1 [Example 304, N-{3-[3-(3-Furoyl)pyrazolo[1,5-a]pyrimidin-7-yl]phenyl}-3-methylbutanamide] | 1 to 10 | 
CC(C)OC(=O)Nc1cccc(-c2ccnc3c(C(=O)c4ccoc4)cnn23)c1 [Example 305, Isopropyl 3-[3-(3-furoyl)pyrazolo[1,5-a]pyrimidin-7-yl]phenylcarbamate] | 1 to 10 | 
COC(=O)c1cccc(-c2ccnc3c(C(=O)c4cccs4)cnn23)c1 [Example 306, Methyl 3-[3-(2-thienylcarbonyl)pyrazolo[1,5-a]pyrimidin-7-yl]benzoate] |  | 10 to 50
Cc1nn2c(-c3cccc(NC(=O)CC(C)C)c3)ccnc2c1C(=O)c1cccs1 [Example 307, 3-Methyl-N-{3-[2-methyl-3-(2-thienylcarbonyl)pyrazolo[1,5-a]pyrimidin-7-yl]phenyl}butanamide] |  | 10 to 50
Cc1nn2c(-c3cccc(NC(=O)OC(C)C)c3)ccnc2c1C(=O)c1cccs1 [Example 308, Isopropyl 3-[2-methyl-3-(2-thienylcarbonyl)pyrazolo[1,5-a]pyrimidin-7-yl]phenylcarbamate] |  | 10 to 50
Cc1ccc(-c2ccnc3c(C(=O)c4cccs4)cnn23)cc1NC(=O)c1ccccc1 [Example 309, N-{2-Methyl-5-[3-(2-thienylcarbonyl)pyrazolo[1,5-a]pyrimidin-7-yl]phenyl}benzamide] |  | 1 to 10
Cc1ccc(-c2ccnc3c(C(=O)c4cccs4)cnn23)cc1NC(=O)CC(C)C [Example 310, 3-Methyl-N-{2-methyl-5-[3-(2-thienylcarbonyl)pyrazolo[1,5-a]pyrimidin-7-yl]phenyl}butanamide] | 1 to 10 | 
COc1ccc(-c2ccnc3c(C(=O)c4cccs4)cnn23)cc1NC(=O)c1ccccc1 [Example 315, N-{2-Methoxy-5-[3-(2-thienylcarbonyl)pyrazolo[1,5-a]pyrimidin-7-yl]phenyl}benzamide] |  | 1 to 10
COc1ccc(-c2ccnc3c(C(=O)c4cccs4)cnn23)cc1NC(=O)OC(C)C [Example 316, Isopropyl 2-methoxy-5-[3-(2-thienylcarbonyl)pyrazolo[1,5-a]pyrimidin-7-yl]phenylcarbamate] |  | 1 to 10
COc1ccc(-c2ccnc3c(C(=O)c4cccs4)cnn23)cc1NC(=O)CC(C)C [Example 317, N-{2-Methoxy-5-[3-(2-thienylcarbonyl)pyrazolo[1,5-a]pyrimidin-7-yl]phenyl}-3-methylbutanamide] |  | 1 to 10
CC(C)CNC(=O)c1cccc(-c2ccnc3c(C(=O)c4cccs4)cnn23)c1 [Example 318, N-Isobutyl-3-[3-(2-thienylcarbonyl)pyrazolo[1,5-a]pyrimidin-7-yl]benzamide] |  | < 1
CCCCNC(=O)c1cccc(-c2ccnc3c(C(=O)c4cccs4)cnn23)c1 [Example 319, N-Butyl-3-[3-(2-thienylcarbonyl)pyrazolo[1,5-a]pyrimidin-7-yl]benzamide] |  | < 1
O=C(NC1CCCC1)c1cccc(-c2ccnc3c(C(=O)c4cccs4)cnn23)c1 [Example 320, N-Cyclopentyl-3-[3-(2-thienylcarbonyl)pyrazolo[1,5-a]pyrimidin-7-yl]benzamide] |  | < 1

SMILES | IC50 [1] [µM] | IC50 [2] [µM]
O=C(Nc1ccccc1)c1cccc(-c2ccnc3c(C(=O)c4cccs4)cnn23)c1 [Example 321, N-Phenyl-3-[3-(2-thienylcarbonyl)pyrazolo[1,5-a]pyrimidin-7-yl]benzamide] |  | < 1
CC(C)NC(=O)c1cccc(-c2ccnc3c(C(=O)c4cccs4)cnn23)c1 [Example 322, N-Isopropyl-3-[3-(2-thienylcarbonyl)pyrazolo[1,5-a]pyrimidin-7-yl]benzamide] |  | < 1
COc1ccc(-c2ccnc3c(C(=O)c4cccs4)cnn23)cc1NC(=O)NC(C)C [Example 323, N-Isopropyl-N′-{2-methoxy-5-[3-(2-thienylcarbonyl)pyrazolo[1,5-a]pyrimidin-7-yl]phenyl}urea] |  | 1 to 10
O=[N+]([O-])c1cccc(-c2ccnc3c(-c4ccsc4)cnn23)c1 [Example 325, 7-(3-Nitrophenyl)-3-(3-thienyl)pyrazolo[1,5-a]pyrimidine] |  | 10 to 50
Nc1cccc(-c2ccnc3c(Br)cnn23)c1 [Example 326, 3-(3-Bromopyrazolo[1,5-a]pyrimidin-7-yl)aniline] |  | 10 to 50
CC(C)COC(=O)Nc1cccc(-c2ccnc3c(Br)cnn23)c1 [Example 327, Isobutyl 3-(3-bromopyrazolo[1,5-a]pyrimidin-7-yl)phenylcarbamate] |  | 10 to 50
CC(C)CC(=O)Nc1cccc(-c2ccnc3c(Br)cnn23)c1 [Example 330, N-[3-(3-Bromopyrazolo[1,5-a]pyrimidin-7-yl)phenyl]-3-methylbutanamide] |  | 10 to 50
CC(C)CC(=O)Nc1cccc(-c2ccnc3c(-c4cccs4)cnn23)c1 [Example 333, 3-Methyl-N-[3-(3-thien-2-ylpyrazolo[1,5-a]pyrimidin-7-yl)phenyl]butanamide] |  | 10 to 50
O=C(c1cccs1)c1cnn2c(-c3cc([N+](=O)[O-])ccc3Cl)ccnc12 [Example 336, [7-(2-Chloro-5-nitrophenyl)pyrazolo[1,5-a]pyrimidin-3-yl](thien-2-yl)methanone] |  | 10 to 50
O=C(c1ccccn1)c1cnn2c(-c3cccc(NC(=O)C4CC4)c3)ccnc12 [Example 337, N-{3-[3-(Pyridin-2-ylcarbonyl)pyrazolo[1,5-a]pyrimidin-7-yl]phenyl}cyclopropanecarboxamide] |  | 10 to 50
C/C(=C\c1ccccc1)CNc1cccc(-c2ccnc3c(C(=O)c4cccs4)cnn23)c1 [Example 397, [7-(3-{[(2E)-2-Methyl-3-phenylprop-2-enyl]amino}phenyl)pyrazolo[1,5-a]pyrimidin-3-yl] (thien-2-yl)methanone] |  | 10 to 50
CC(CCNc1cccc(-c2ccnc3c(C(=O)c4cccs4)cnn23)c1)c1ccccc1 (stereo not shown) [Example 400, (7-{3-[(3-Phenylbutyl)amino]phenyl}pyrazolo[1,5-a]pyrimidin-3-yl)(thien-2-yl)methanone] |  | 1 to 10
COc1cc(/C=C/CNc2cccc(-c3ccnc4c(C(=O)c5cccs5)cnn34)c2)ccc1O [Example 401, [7-(3-{[(2E)-3-(4-Hydroxy-3-methoxyphenyl)prop-2-enyl]amino}phenyl)pyrazolo[1,5-a]pyrimidin-3-yl](thien-2-yl)methanone] |  | 10 to 50
CCC(C)CNc1cccc(-c2ccnc3c(C(=O)c4cccs4)cnn23)c1 (stereo not shown) [Example 402, (7-{3-[(2-Methylbutyl)amino]phenyl}pyrazolo[1,5-a]pyrimidin-3-yl)(thien-2-yl)methanone] |  | 1 to 10
CCC(CC)CNc1cccc(-c2ccnc3c(C(=O)c4cccs4)cnn23)c1 [Example 403, (7-{3-[(2-Ethylbutyl)amino]phenyl}pyrazolo[1,5-a]pyrimidin-3-yl)(thien-2-yl)methanone] |  | 1 to 10
CC(C)CNc1cccc(-c2ccnc3c(C(=O)c4cccs4)cnn23)c1 [Example 404, {7-[3-(Isobutylamino)phenyl]pyrazolo[1,5-a]pyrimidin-3-yl}(thien-2-yl)methanone] |  | 1 to 10
O=C(c1cccs1)c1cnn2c(-c3cccc(NC(=S)Nc4cccc(-c5ccnc6c(C(=O)c7cccs7)cnn56)c4)c3)ccnc12 [Example 406, N,N′-bis {3-[3-(Thien-2-ylcarbonyl)pyrazolo[1,5-a]pyrimidin-7-yl]phenyl}thiourea] |  | 10 to 50
CC(C)COC(=O)Nc1cccc(-c2ccnc3c(-c4cccs4)cnn23)c1 [Example 407, Isobutyl 3-(3-thien-2-ylpyrazolo[1,5-a]pyrimidin-7-yl)phenylcarbamate] |  | 1 to 10
O=C(c1cccs1)c1cnn2c(-c3cccc(NC(=O)C4CCNCC4)c3)ccnc12 [Example 408, N-{3-[3-(Thien-2-ylcarbonyl)pyrazolo[1,5-a]pyrimidin-7-yl]phenyl}piperidine-4-carboxamide] |  | 1 to 10
CCCCCC/C(=C\c1ccccc1)CNc1cccc(-c2ccnc3c(C(=O)c4cccs4)cnn23)c1 [Example 409, [7-(3-{[(2E)-2-Hexyl-3-phenylprop-2-enyl]amino}phenyl)pyrazolo[1,5-a]pyrimidin-3-yl] (thien-2-yl)methanone] |  | 10 to 50
